Tests used:
mROS = settings: in vivo; cited from earlier work
AD patients = settings: human, in vivo; cited from earlier work
[1] = system: hippocampal slice neurons; experiment: long-term potentiation (LTP) of hippocampal slices treated with Aβ after in vivo treatment; design: species or system rat; settings: for neuroprotective activity based on LTP signal, model of Alzheimer disease: administered in vivo to rats prior to extraction of hippocampus, beta-amyloid treatment
Experimental: FIG. 3B is a graphic representation showing the LTP caused by in vitro addition of Aβ, where the decay of LTP of hippocampal slice neurons characterized by a decrease of pop-spike amplitude (%) in a hippocampal slice treated with Aβ.
SkQR1 Aβ was added 15 min before the LTP induction with high-frequency electric stimulation (arrow). The decay of LTP (i.e. decrease of pop-spike amplitude) in a hippocampal slice treated with Aβ can be prevented by SkQR1 treatment.
FIG. 16 is a bar graph comparing the neuroprotective effects of preferred SkQ mitochondria-targeted antioxidants of the invention when administered in vivo in a model of Alzheimer disease.
As a model of cell memory, an electric response of a hippocampal slice (long-term potentiation, LTP) was used (Malenka, et al., Science 285:1870-1874 (1999)). A direct experiment was performed showing the prevention of Aβ toxicity in hippocampus by in vivo treatment of rats with 1 μmol SkQR1 per kg of body weight. The compound was injected intraperitoneally into the animal 24 hours before hippocampal slices were obtained to measure LTP. Some slices were pretreated with Aβ for 15 minutes. As is seen in FIG. 3B, Aβ impaired LTP relative to untreated control.
FIG. 16 provides a comparison of the neuroprotective effects of SkQ1, SkQR1 and C12TPP based on the LTP signal in neurons of hippocampal slices. Ab stands for beta-amyloid treatment. […] All SkQs and C12TPP were administered in vivo to rats prior the extraction of hippocampus.

Wistar rats [2] = experiment: damaged focal volume (morphometry) after focal open severe brain trauma; type: in vivo, rat; settings: seventh day after trauma; 100 nmol/kg i.p. 1 h after trauma then daily for four days; mean±SEM
Experimental: In this study, we, the inventors, employed our modification of the earlier used model of focal open severe brain trauma in rats. The study was performed on male Wistar rats with body weight of 180-250 g. Before the surgery, the animals were anesthetized by an intraperitoneal injection of 3% chloral hydrate (330 mg/kg). To create the trauma, the left frontal part of the skull was trepanized above the sensorimotor cortex zone, and a movable Teflon piston 4 mm in diameter with depth of insertion of 2.5 mm was placed into it; this piston was struck from the height of 10 cm with a 50-g load sliding along a directing rail. Localization of the sensorimotor cortex zone was determined based on data described in [14]. […]
A magnetic resonance imaging (MRI) study was performed as described in [15] using a BioSpec 70/30 (Bruker, Germany) with magnetic field induction of 7 T and gradient of 105 mT/m. The damaged focal volume was determined morphometrically on the 7th day after the trauma. […] The volume of the lesion was determined as a cylinder with V=ΣSn×d, where d is thickness of the section pair (200 μm); Sn is the area of the lesion in the section in mm2; Σ is the sum of volumes of ischemic damage in the sections using an Image J program (Bethesda Md., USA).
The results are expressed as the mean±standard error of mean. […]

[3] = system: hippocampal slice neurons; experiment: LTP of hippocampal slices, nootropic activity; settings: administered in vivo; FIG. 15
Excerpt: FIG. 15 is a bar graph showing the nootropic activity of preferred SkQ mitochondria-targeted antioxidants of the invention when administered to animals in vivo.

[4] = system: rats after transient middle cerebral artery occlusion; experiment: limb-placing test after transient middle cerebral artery occlusion; type: in vivo, rat; settings: after injection of SkQR1; first day after induction of ischemia
Experimental: Behavioral tests were performed 1 day before the induction of ischemia and on the first day after the induction of ischemia. The limb-placing test was used to evaluate the neurological deficit estimated by a conventional 14-point scale with modifications as described in Jolkkonen, et al., Eur. J. Pharmacol., 400:211-219 (2000)). The test had 7 limb-placing tasks that assess the sensorimotor integration of forelimb and hindlimb responses to tactile and proprioceptive stimulation.

[5] = system: rats after transient middle cerebral artery occlusion; experiment: transient middle cerebral artery occlusion, brain infarct volume (TTC staining); type: in vivo, rat; settings: single intraperitoneal injection 0.5-2 μmol/kg body weight; 24 h before 60 min occlusion; studied 24 h after occlusion
Experimental: Several effects of SkQs were observed when brain functions were studied. Where indicated, 1 μmol SkQR1 per kg of body weight was injected intraperitoneally 24 h before the 60 min occlusion of the artery. The ischemia effect was studied 24 h after the occlusion (Plotnikov, et al., Biochemistry (Mosc) 75:145-150 (2010) here and below, p<0.05 for SkQ effect).

Wistar rats [6] = experiment: limb-placing test after focal open severe brain trauma; type: in vivo, rat; settings: 100 nmol/kg i.p. 1 h after trauma then daily for four days, 12-score scale, mean±SEM
Experimental: In this study, we, the inventors, employed our modification of the earlier used model of focal open severe brain trauma in rats. The study was performed on male Wistar rats with body weight of 180-250 g. Before the surgery, the animals were anesthetized by an intraperitoneal injection of 3% chloral hydrate (330 mg/kg). To create the trauma, the left frontal part of the skull was trepanized above the sensorimotor cortex zone, and a movable Teflon piston 4 mm in diameter with depth of insertion of 2.5 mm was placed into it; this piston was struck from the height of 10 cm with a 50-g load sliding along a directing rail. Localization of the sensorimotor cortex zone was determined based on data described in [14].
SkQR1 (100 nmol/kg) was injected intraperitoneally 1 h after the trauma and then daily in the same dose during the following four days.
Behavioral “limb-placing test” was performed 24 h before the operation and then on the third and seventh days after the trauma. […] The resulting score on this scale is determined as the sum of points obtained in six tests assessing the response of the forelimbs and hindlimbs to tactile and proprioceptive stimulation in the presence of obvious reflexes. […]
The results are expressed as the mean±standard error of mean. […] The statistical significance of differences in the damaged volumes was assessed using Student's t-test at the significance level of p<0.05.

Question: Which “outcome of targeting the antioxidant to quench mROS” value (mROS) does the source give for `COC1=C(OC)C(=O)C(CCCCCCCCCC[P+](c2ccccc2)(c2ccccc2)c2ccccc2)=C(C)C1=O` [MitoQ] here?
Answer: Its value is “failed”.

Question: What does the source list for `Cc1c(C)c2c(c(C)c1O)CC[C@@](C)(CCC[C@H](C)CCC[C@H](C)CCCC(C)C)O2` [α-tocopherol]?
Answer: efficacy in treating AD patients (AD patients): ineffective; safety (AD patients): safe

Question: For `O=C1O[C@H]([C@@H](O)CO)C(O)=C1O` [ascorbate], which safety (AD patients) is on record?
Answer: The safety was “safe”.

Question: Which “efficacy in treating AD patients” value (AD patients) does the source give for `O=C(O)CCCCC1CCSS1` (stereo not drawn) [α-lipoate] here?
Answer: The value was “ineffective”.

Question: And the safety (AD patients)?
Answer: The safety was “safe”.

Question: For `CCCCCCCCCCCC[P+](c1ccccc1)(c1ccccc1)c1ccccc1` [C12TPP], which “neuroprotective activity compared to SkQ” value ([1]; FIG. 16) is on record?
Answer: Its value is “lower but still sufficient”.

Question: And the “neuroprotective activity based on LTP signal, model of Alzheimer disease” value ([1]; FIG. 16)?
Answer: Its value is “neuroprotective activity”.

Question: Which damaged volume (Wistar rats [2]) does the source give for `CC/N=c1/cc2oc3cc(NCC)c(C)cc3c(-c3ccccc3C(=O)OCCCCCCCCCCC3=CC(=O)C(C)=C(C)C3=O)c-2cc1C` [SkQR1, plastoquinonyl decylrhodamine 19] here?
Answer: The damaged volume was 15±4 mm3.

Question: What about the “LTP signal (nootropic activity)” value [3] of the same molecule?
Answer: The value was “clearly stimulates LTP”.

Question: And the “neuroprotective activity based on LTP signal, model of Alzheimer disease” value ([1]; FIG. 16)?
Answer: Its value is “neuroprotective activity”.

Question: What about the “impairment (decay) of LTP caused by Aβ” value ([1]; in vivo treatment (SkQR1 1 μmol/kg i.p. 24 hours before slices), Aβ added to slices for 15 min) of the same molecule?
Answer: The value was “prevented such impairment”.

Question: What about the “behavioral defects, limb-placing test” value [4] of the same molecule?
Answer: The value was “decrease”.

Question: And the “infarct volume in brain” value [5]?
Answer: Its value is “strongly decreased”.

Question: What about the “limb-placing test score, right limbs” value (Wistar rats [6]; seventh day after trauma) of the same molecule?
Answer: Its value is 7.4±0.8 points.

Question: What about the “limb-placing test score, right limbs” value (Wistar rats [6]; third day after trauma) of the same molecule?
Answer: Its value is 6.6±0.8 points.
